What all share (experiment): biochemical
Parameters in all cases: KinomeScan competition binding panel (DiscoveRx), percent of control at 1 uM
Holding throughout (conditions): read-out: Percent Control

For assay [1], the target named is ALK (Homo sapiens, UniProt Q9UM73). The essentials: (§1)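 Selectivity profiled across 456 kinases/mutants by KinomeScan binding technology.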
Assay [2] concerns the target BRSK1 (Homo sapiens, UniProt Q8TDC3). The essentials: as §1
The target of assay [3] is CSNK1A1L (Homo sapiens, UniProt Q8N752). The essentials:
as §1

Assay [4] addresses EGFR(E746-A750del) (Homo sapiens, UniProt P00533, DEL746-750). The essentials:
as §1

Assay [5] has as its target EGFR(L747-S752del, P753S) (Homo sapiens, UniProt P00533, DEL747-752/P753S). The essentials:
as §1

Assay [6] deals with EGFR(L747-T751del,Sins) (Homo sapiens, UniProt P00533, DEL747-750/T751S). In short, it runs like this:
as §1

The target in assay [7] is EPHA1 (Homo sapiens, UniProt P21709). In short, it runs like this: as §1
Assay [8] concerns the target FYN (Homo sapiens, UniProt P06241). In short, it runs like this: as §1
The target of assay [9] is T1, IKK-beta (Homo sapiens, UniProt O14920).
T1 construct: gene IKBKB
The essentials: as §1

The target in assay [10] is KIT(D816H) (Homo sapiens, UniProt P10721, D816H). The essentials: as §1
Assay [11] deals with KIT(V559D,T670I) (Homo sapiens, UniProt P10721, T670I/V559D). The essentials: as §1
Assay [12] deals with MAK (Homo sapiens, UniProt P20794). The essentials: as §1
Assay [13] addresses MAPKAPK5 (Homo sapiens, UniProt Q8IW41). In short, it runs like this: as §1
The target in assay [14] is MERTK (Homo sapiens, UniProt Q12866). In short, it runs like this: as §1
For assay [15], the target named is MET(M1250T) (Homo sapiens, UniProt P08581, M1250T). The essentials:
as §1

The target of assay [16] is T2, MST3 (Homo sapiens, UniProt Q9Y6E0).
T2 construct: gene STK24
The essentials: as §1

The target in assay [17] is NEK2 (Homo sapiens, UniProt P51955). The essentials: as §1
In assay [18] the target is T3, PIK4CB (Homo sapiens, UniProt Q9UBF8).
T3 construct: gene PI4KB
In short, it runs like this: as §1

Assay [19] deals with RET(M918T) (Homo sapiens, UniProt P07949, M918T). The essentials: as §1
Assay [20] has as its target SRMS (Homo sapiens, UniProt Q9H3Y6). The essentials:
as §1

Assay [21] deals with SRPK3 (Homo sapiens, UniProt Q9UPE1). The essentials:
as §1

The target of assay [22] is STK16 (Homo sapiens, UniProt O75716). The essentials: as §1
Assay [23] deals with STK35 (Homo sapiens, UniProt Q8TDR2). In short, it runs like this:
as §1

Assay [24] deals with T4, p38-beta (Homo sapiens, UniProt Q15759).
T4 construct: gene MAPK11
In short, it runs like this: as §1

Sequence of KIT(D816H) (P10721 whole entry D816H): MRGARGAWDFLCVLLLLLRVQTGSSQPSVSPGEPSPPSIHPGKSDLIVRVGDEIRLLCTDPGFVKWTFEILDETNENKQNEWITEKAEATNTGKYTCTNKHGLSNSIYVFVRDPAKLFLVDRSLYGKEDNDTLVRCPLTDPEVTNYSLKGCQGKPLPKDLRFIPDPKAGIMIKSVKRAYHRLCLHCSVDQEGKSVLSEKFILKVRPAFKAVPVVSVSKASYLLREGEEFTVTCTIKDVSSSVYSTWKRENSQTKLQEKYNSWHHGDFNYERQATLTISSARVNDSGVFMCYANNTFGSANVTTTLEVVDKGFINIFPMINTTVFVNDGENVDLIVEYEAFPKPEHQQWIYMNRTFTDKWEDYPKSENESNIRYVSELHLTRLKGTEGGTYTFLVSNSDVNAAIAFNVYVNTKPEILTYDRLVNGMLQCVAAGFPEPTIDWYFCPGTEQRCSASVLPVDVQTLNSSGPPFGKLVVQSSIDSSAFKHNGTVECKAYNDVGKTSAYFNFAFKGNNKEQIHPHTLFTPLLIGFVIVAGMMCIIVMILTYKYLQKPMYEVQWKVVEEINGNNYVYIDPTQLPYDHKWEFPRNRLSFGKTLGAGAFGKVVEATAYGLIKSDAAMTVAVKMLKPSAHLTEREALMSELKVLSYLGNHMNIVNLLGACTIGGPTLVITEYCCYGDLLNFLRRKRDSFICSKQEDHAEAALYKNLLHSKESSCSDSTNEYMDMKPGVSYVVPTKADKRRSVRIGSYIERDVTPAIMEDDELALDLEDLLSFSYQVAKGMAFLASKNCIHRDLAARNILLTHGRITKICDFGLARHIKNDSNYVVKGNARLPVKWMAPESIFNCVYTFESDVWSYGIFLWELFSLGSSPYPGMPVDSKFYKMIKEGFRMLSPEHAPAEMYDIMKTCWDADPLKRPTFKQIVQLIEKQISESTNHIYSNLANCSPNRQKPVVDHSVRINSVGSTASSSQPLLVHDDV
Sequence of BRSK1 (Q8TDC3 whole entry): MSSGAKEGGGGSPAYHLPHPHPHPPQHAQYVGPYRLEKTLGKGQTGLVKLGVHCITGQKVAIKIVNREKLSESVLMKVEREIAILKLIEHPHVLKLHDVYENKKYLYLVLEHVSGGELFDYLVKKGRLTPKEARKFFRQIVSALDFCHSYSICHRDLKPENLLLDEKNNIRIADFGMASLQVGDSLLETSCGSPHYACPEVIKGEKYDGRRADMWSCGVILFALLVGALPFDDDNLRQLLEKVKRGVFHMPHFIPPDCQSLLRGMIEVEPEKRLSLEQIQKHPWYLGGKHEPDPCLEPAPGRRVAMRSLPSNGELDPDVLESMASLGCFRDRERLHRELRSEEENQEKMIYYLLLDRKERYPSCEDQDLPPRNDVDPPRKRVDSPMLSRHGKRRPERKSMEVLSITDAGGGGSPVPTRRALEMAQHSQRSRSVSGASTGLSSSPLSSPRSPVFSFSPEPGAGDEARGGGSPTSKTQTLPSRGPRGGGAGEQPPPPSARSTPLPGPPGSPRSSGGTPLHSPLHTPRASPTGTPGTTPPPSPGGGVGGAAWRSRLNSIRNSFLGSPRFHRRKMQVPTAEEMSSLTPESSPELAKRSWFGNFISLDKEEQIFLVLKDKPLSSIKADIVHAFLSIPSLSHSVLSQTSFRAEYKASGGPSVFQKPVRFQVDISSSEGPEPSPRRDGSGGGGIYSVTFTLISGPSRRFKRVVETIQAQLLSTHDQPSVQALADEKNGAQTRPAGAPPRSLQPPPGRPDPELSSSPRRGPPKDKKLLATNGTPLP
T1 sequence (O14920 whole entry): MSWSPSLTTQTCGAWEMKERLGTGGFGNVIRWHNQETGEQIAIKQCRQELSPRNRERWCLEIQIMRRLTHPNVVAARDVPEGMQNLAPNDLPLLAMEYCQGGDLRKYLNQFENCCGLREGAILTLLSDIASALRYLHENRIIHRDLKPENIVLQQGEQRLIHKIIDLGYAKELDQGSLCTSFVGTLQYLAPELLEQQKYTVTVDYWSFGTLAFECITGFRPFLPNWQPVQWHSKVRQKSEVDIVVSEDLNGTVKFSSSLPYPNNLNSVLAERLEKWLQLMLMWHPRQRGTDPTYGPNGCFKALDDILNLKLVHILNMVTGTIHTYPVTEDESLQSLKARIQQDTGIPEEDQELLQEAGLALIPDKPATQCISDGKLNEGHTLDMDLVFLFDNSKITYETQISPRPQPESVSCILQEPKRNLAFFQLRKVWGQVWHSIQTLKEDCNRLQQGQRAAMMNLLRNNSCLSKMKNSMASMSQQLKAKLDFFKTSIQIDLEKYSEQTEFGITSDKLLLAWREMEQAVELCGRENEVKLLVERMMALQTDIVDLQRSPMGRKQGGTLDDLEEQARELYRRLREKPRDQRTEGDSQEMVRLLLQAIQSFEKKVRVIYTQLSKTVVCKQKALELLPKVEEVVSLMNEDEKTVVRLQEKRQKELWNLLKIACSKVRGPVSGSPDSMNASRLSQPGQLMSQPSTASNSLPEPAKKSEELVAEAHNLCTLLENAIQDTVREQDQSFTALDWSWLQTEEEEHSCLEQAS
Sequence of KIT(V559D,T670I) (P10721 whole entry V559D/T670I): as the sequence (P10721 whole entry D816H) above, with V559D, T670I, H816D counted along it
Sequence of FYN (P06241 whole entry): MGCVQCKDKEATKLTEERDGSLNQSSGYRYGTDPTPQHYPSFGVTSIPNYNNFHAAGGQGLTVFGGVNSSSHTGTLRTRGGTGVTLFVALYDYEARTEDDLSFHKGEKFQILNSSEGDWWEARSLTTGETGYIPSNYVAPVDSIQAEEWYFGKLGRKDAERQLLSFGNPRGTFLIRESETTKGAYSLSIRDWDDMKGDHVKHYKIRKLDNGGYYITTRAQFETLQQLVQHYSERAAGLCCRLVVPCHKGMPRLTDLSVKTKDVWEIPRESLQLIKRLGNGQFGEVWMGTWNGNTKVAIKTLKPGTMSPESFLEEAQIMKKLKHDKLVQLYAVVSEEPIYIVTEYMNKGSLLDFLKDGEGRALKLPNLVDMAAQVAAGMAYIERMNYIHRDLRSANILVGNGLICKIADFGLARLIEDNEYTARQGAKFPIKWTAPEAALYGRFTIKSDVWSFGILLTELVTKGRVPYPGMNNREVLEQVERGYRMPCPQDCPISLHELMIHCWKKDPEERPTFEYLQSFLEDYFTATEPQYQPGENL
Sequence of STK16 (O75716 whole entry): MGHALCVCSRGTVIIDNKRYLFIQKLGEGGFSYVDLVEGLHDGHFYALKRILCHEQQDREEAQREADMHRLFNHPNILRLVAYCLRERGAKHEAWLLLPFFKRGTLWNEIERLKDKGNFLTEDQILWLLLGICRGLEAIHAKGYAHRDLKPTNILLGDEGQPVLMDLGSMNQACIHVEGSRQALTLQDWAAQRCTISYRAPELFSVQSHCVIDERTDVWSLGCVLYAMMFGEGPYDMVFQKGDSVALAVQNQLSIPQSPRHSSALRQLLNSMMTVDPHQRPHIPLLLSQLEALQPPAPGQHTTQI
Sequence of EGFR(L747-T751del,Sins) (P00533 with tags, fused parts or gaps DEL747-750/T751S): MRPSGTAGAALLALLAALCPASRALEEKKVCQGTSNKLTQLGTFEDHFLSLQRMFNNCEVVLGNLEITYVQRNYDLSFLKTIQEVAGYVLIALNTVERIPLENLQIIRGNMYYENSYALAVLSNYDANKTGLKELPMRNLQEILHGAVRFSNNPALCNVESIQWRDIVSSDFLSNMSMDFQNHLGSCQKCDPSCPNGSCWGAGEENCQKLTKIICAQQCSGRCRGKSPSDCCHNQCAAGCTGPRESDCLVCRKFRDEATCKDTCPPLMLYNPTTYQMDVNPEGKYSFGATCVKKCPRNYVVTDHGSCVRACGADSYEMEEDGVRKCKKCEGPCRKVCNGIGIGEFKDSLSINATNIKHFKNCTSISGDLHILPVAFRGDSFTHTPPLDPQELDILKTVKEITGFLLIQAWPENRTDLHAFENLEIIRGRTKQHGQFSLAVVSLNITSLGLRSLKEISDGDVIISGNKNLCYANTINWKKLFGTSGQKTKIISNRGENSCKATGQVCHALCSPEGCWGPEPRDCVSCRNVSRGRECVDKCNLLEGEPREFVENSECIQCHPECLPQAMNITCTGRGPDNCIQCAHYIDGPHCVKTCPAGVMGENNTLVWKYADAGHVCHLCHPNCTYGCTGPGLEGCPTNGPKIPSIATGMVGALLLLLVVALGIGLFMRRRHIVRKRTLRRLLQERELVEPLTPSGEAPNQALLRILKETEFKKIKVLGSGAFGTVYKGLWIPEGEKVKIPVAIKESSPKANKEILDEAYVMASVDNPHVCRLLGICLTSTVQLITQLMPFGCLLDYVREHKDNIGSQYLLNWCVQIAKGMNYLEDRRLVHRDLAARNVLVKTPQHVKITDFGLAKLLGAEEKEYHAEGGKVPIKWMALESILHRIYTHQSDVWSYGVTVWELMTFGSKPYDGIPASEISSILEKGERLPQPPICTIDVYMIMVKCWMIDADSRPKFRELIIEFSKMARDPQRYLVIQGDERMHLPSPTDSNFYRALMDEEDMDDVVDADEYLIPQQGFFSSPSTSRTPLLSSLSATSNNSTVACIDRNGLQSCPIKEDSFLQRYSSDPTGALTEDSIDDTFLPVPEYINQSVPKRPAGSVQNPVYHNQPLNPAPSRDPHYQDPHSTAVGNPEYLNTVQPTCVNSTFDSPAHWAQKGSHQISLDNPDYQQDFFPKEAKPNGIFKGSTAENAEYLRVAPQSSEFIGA
Sequence of MAPKAPK5 (Q8IW41 whole entry): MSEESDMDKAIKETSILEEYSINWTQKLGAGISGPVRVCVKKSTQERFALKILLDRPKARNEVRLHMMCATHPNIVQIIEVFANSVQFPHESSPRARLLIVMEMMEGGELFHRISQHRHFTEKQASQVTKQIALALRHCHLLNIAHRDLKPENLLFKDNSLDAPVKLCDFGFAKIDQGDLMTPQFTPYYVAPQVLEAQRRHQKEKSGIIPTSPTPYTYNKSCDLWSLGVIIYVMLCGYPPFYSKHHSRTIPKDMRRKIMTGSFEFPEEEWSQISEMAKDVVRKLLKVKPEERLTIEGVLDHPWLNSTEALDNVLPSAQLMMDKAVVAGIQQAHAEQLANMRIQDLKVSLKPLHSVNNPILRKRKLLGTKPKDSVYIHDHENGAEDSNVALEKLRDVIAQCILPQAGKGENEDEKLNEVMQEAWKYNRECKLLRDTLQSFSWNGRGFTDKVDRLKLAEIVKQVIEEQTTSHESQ

As to `C=CC(=O)Nc1cc(-n2c(=O)ccc3cnc4ccc(-n5cccn5)cc4c32)ccc1C` [CHMFL-BTK-11], the remaining binding at 1 µM in assay [1] was determined as 100%; in [2], 100%; in [3] it was 100%; in [4] it was 90%; in assay [5], 86%; in [6], 77%. The remaining binding at 1 µM in assay [7] is 100%; in assay [8], 99%; in assay [9], 86%; in assay [10] it was 100%; in [11] it was 99%; in assay [12], 100%. The remaining binding at 1 µM in assay [13], in assay [14], in assay [15], in assay [16], in assay [17] and in [18] was 100% throughout. Also, the remaining binding at 1 µM in assay [19] stood at 100%; in assay [20], 88%; in assay [21], 96%; in assay [22], 91%; in assay [23], 100%; in assay [24], 100%.

The values are drawn from paper PMC5428509, “Irreversible inhibition of BTK kinase by a novel highly selective inhibitor CHMFL-BTK-11 suppresses inflammatory response in rheumatoid arthritis model” (Scientific Reports, 2017).
